Where “and” joins values, the source holds several entries; their conditions need not be identical. Identical values can stand only once. Toxic doses and inconclusive results are not listed. Rule for the calls: active = survival T/C of 150% or more; inactive = T/C below 125% in these data.
System: CD2F1 mice, L1210 leukemia ip, survival T/C
Test: NCI In Vivo Anticancer Drug Screen. Data for tumor model L1210 Leukemia (intraperitoneal) in CD2F1 (CDF1) mice
Conditions: higher = longer survival
How it was run: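 In this screen, transplantable tumors were grown in mice given either the compound or its vehicle. Results were expressed as the treated measurement relative to the control measurement.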

[1] = endpoint: mean survival time, dose: 50.0 mg/kg/injection, schedule: Q01DX009 (ip), vehicle: saline with Tween-80

Measured: T/C

COc1cc2c[n+](C)c3c4cc5c(cc4ccc3c2cc1OC)OCO5
inactive: endpoint: mean survival time, dose: 1.0 mg/kg/injection, schedule: Q01DX009 (ip), vehicle: other 104 % of control | endpoint: mean survival time, dose: 1.0 mg/kg/injection, schedule: Q01DX009 (ip), vehicle: water 102 % of control and 104 % of control | endpoint: mean survival time, dose: 2.0 mg/kg/injection, schedule: Q01DX009 (ip), vehicle: other 109 % of control | endpoint: mean survival time, dose: 2.0 mg/kg/injection, schedule: Q01DX009 (ip), vehicle: water 117 % of control and 112 % of control | endpoint: mean survival time, dose: 4.0 mg/kg/injection, schedule: Q01DX009 (ip), vehicle: other 104 % of control | endpoint: mean survival time, dose: 4.0 mg/kg/injection, schedule: Q01DX009 (ip), vehicle: water 116 % of control and 120 % of control | endpoint: mean survival time, dose: 6.25 mg/kg/injection, schedule: Q01DX009 (ip), vehicle: saline with Tween-80 120 % of control | endpoint: mean survival time, dose: 8.0 mg/kg/injection, schedule: Q01DX009 (ip), vehicle: other 115 % of control | endpoint: mean survival time, dose: 8.0 mg/kg/injection, schedule: Q01DX009 (ip), vehicle: water 115 % of control and 121 % of control | endpoint: mean survival time, dose: 8.0 mg/kg/injection, schedule: Q04DX003 (ip), vehicle: water 108 % of control | endpoint: mean survival time, dose: 12.5 mg/kg/injection, schedule: Q01DX009 (ip), vehicle: saline with Tween-80 114 % of control | endpoint: mean survival time, dose: 16.0 mg/kg/injection, schedule: Q01DX009 (ip), vehicle: other 116 % of control | endpoint: mean survival time, dose: 16.0 mg/kg/injection, schedule: Q01DX009 (ip), vehicle: water 118 % of control and 120 % of control | endpoint: mean survival time, dose: 16.0 mg/kg/injection, schedule: Q04DX003 (ip), vehicle: water 117 % of control | endpoint: mean survival time, dose: 25.0 mg/kg/injection, schedule: Q01DX009 (ip), vehicle: saline with Tween-80 104 % of control | endpoint: mean survival time, dose: 32.0 mg/kg/injection, schedule: Q04DX003 (ip), vehicle: water 120 % of control | endpoint: mean survival time, dose: 40.0 mg/kg/injection, schedule: Q01DX009 (ip), vehicle: water 115 % of control and 116 % of control | [1] 98 % of control | endpoint: mean survival time, dose: 64.0 mg/kg/injection, schedule: Q04DX003 (ip), vehicle: water 121 % of control | endpoint: mean survival time, dose: 80.0 mg/kg/injection, schedule: Q01DX009 (ip), vehicle: water 103 % of control | endpoint: mean survival time, dose: 128.0 mg/kg/injection, schedule: Q04DX003 (ip), vehicle: water 101 % of control

CS(=O)CCO (stereo not given)
inactive: endpoint: mean survival time, dose: 100.0 mg/kg/injection, schedule: Q04DX002 (ip), vehicle: saline 93 % of control | endpoint: mean survival time, dose: 200.0 mg/kg/injection, schedule: Q04DX002 (ip), vehicle: saline 107 % of control | endpoint: mean survival time, dose: 400.0 mg/kg/injection, schedule: Q04DX002 (ip), vehicle: saline 104 % of control

CCCCOc1ccc(/C=N\NC(=O)CNC(=O)Nc2ccc(F)cc2)cc1
inactive: [1] 92 % of control | endpoint: mean survival time, dose: 100.0 mg/kg/injection, schedule: Q01DX009 (ip), vehicle: saline with Tween-80 88 % of control | endpoint: mean survival time, dose: 200.0 mg/kg/injection, schedule: Q01DX009 (ip), vehicle: saline with Tween-80 88 % of control

C[C@@H]1CC[C@]2(C)CC[C@]3(C)C(=CC[C@@H]4[C@@]5(C)CC[C@@H](OC(=O)c6ccc(O)cc6)C(C)(C)[C@@H]5C[C@H](O)[C@]43C)[C@@H]2[C@H]1C(=O)O
inactive: endpoint: median survival time, dose: 0.06 mg/kg/injection, schedule: Q01DX009 (ip), vehicle: saline with Tween-80 103 % of control | endpoint: median survival time, dose: 0.12 mg/kg/injection, schedule: Q01DX009 (ip), vehicle: saline with Tween-80 111 % of control | endpoint: median survival time, dose: 0.25 mg/kg/injection, schedule: Q01DX009 (ip), vehicle: saline with Tween-80 114 % of control | endpoint: median survival time, dose: 0.5 mg/kg/injection, schedule: Q01DX009 (ip), vehicle: saline with Tween-80 123 % of control | endpoint: median survival time, dose: 1.0 mg/kg/injection, schedule: Q01DX009 (ip), vehicle: saline with Tween-80 107 % of control

NNC(=S)NC1CC2C=CC1C2 (stereo not given)
inactive: endpoint: mean survival time, dose: 6.25 mg/kg/injection, schedule: Q04DX003 (ip), vehicle: saline with Tween-80 95 % of control | endpoint: mean survival time, dose: 12.5 mg/kg/injection, schedule: Q04DX003 (ip), vehicle: saline with Tween-80 95 % of control | endpoint: mean survival time, dose: 25.0 mg/kg/injection, schedule: Q04DX003 (ip), vehicle: saline with Tween-80 97 % of control

COc1cc2c(c(OC)c1OC)-c1ccc(SC)c(=O)cc1C(N=C(NC1OCC(OC(C)=O)C(OC(C)=O)C1OC(C)=O)SN(NC(=O)OCc1ccccc1)C(=O)OCc1ccccc1)CC2 (stereo not given)
inactive: endpoint: mean survival time, dose: 100.0 mg/kg/injection, schedule: Q01DX001 (ip), vehicle: saline with Tween-80 92 % of control

CN(C)CCNc1ccc(O)c2c1C(=O)c1ccccc1C2=O
inactive: endpoint: mean survival time, dose: 10.0 mg/kg/injection, schedule: Q01DX009 (ip), vehicle: saline with Tween-80 94 % of control | endpoint: mean survival time, dose: 20.0 mg/kg/injection, schedule: Q01DX009 (ip), vehicle: saline with Tween-80 90 % of control | endpoint: mean survival time, dose: 40.0 mg/kg/injection, schedule: Q01DX009 (ip), vehicle: saline with Tween-80 107 % of control | endpoint: mean survival time, dose: 80.0 mg/kg/injection, schedule: Q01DX009 (ip), vehicle: saline with Tween-80 122 % of control
